Results: article PMC9144807, “Fluorine-18 Labeled Urea-Based Ligands Targeting Prostate-Specific Membrane Antigen (PSMA) with Increased Tumor and Decreased Renal Uptake” (Pharmaceuticals, 2022)
Read-outs that look alike come from different tables or passages of the source.

How the values were obtained:
PSMA [1] = target: T1, PSMA (Homo sapiens, UniProt Q04609); test: In vitro saturation binding assay with PC3(+) tumor membrane preparations
T1 construct: expressed in transfected cells; host or cells: PC3(+) (PC3 human prostate cancer cells transfected with human PSMA), grown as xenograft tumors in athymic mice; tumor membrane preparations
Description: (§1) PC3(−) (wildtype human prostate cancer cell line, PSMA negative) and PC3(+) (transfected with human PSMA) were provided by Dr. Hisataka Kobayashi. Cell lines were grown at 37 °C in 5% CO2 in RPMI-1640 supplemented with 10% FBS, 2 mM L-glutamine and Pen/Strep/Amphotericin B. PC3(+) and PC3(−) cell suspensions [2 × 10^6 cells; PBS:Matrigel (70:30)] from in vitro cell culture were subcutaneously implanted (right shoulder) into athymic mice (Athymic NCr- nu/nu, Charles River Laboratory, 4 weeks old) for use as positive and negative controls, respectively, for in vitro or in vivo studies. When tumors reached the appropriate size (>100 mg) the xenograft mice were used for in vivo biodistributions and imaging studies or the tumors were excised and further processed to obtain membrane preparations for in vitro assays as described previously.
In vitro saturation studies were performed to determine binding affinities (Kd) and PSMA expression levels (Bmax) using tumor membrane preparations from PC3(−) and PC3(+) PSMA xenografts (human prostate cancer cell line transfected with human PSMA; PC3(+)). […] Filter papers were collected, and the radioactive content was quantified by gamma counting (PerkinElmer 2480 Wizard3). […] Aliquots of each membrane preparation were taken for the determination of the protein concentration (Bradford method).

PC3(−) xenografts = test: In vivo biodistribution in PC3(−) xenograft mice (negative control); details: 60 min; for PC3(−) Tumor T:M: mean ± SE, n = 8–10
Description: as §1
(§2) Tumor-bearing mice (tumor weights: 0.1–0.8 g) were injected while awake via the tail vein with each of the tracers [0.74–3.7 MBq (20 to 100 µCi), 10 to 80 pmol] and euthanized (via CO2 inhalation) at selected times. […] Blood samples and tissues were excised from each animal, weighed, and radioactivity content was determined (Perkin Elmer 2480 Wizard3). Radioactivity content in the blood and each tissue was expressed as % injected dose per gram of tissue [%ID/g; (Formula (1))] and then normalized for body weight to a 20 g mouse (Formula (2)) from which Tissue:Muscle ratios [T:M; (Formula (3))] were determined as follows:(1) %ID/g =[counts per minute cpmtissue / tissue weight g]×100/cpmtotal injected dose
(§3) %ID/g (normalized to a 20 g mouse) = (%ID/g) × (body weight/20 g)(2)
(§4) (3) T:M=%ID/gtissue/%ID/gmuscle

[2] = Fraction of intact tracer (parent) in blood and kidney by TLC; format: in vivo, mice; details: for %Parent compound in blood (TLC analysis): 60 min, mean ± SD, n = 2–5; for tissue uptake at 1 h: 60 min post-injection; for tissue uptake at 2 h: 120 min post-injection
Description: In some cases, additional blood samples and/or tissue samples after gamma counting were taken for determining the fraction of intact radiolabeled tracer (parent) using thin-layer chromatography (TLC). For these TLC determinations: tissues were placed in equal volumes of acetonitrile and homogenized, or serum was obtained from the blood samples and mixed with an equal volume of acetonitrile. Following centrifugation of the samples, supernatants were collected and the radioactive content of the supernatants and pellets were determined. The supernatants were then applied to thin-layer chromatography (TLC) plates. The TLC plates were developed [solvent system: ethyl acetate (80%), methanol (10%) and acetic acid (10%)], and exposed on a phosphorimaging plate which was scanned the next day.

PSMA [3] = target: T1, PSMA; test: In vitro competition binding assay with [18F]DCFPyL as radioligand, PC3(+) tumor membrane preparations
PC3(+) xenografts [4] = test: In vivo biodistribution in PC3(+) xenograft mice; set-up: key to salivary gland T:M / Femur T:M / Blood T:M / Kidney T:M / Liver T:M: T:M = (%ID/g in tissue) / (%ID/g in muscle)
Description: as §1, §2, §3, §4

[5] = system: PC3(+) tumor xenograft mice; test: Small animal PET imaging with ROI analysis, PC3(+) tumor xenograft mice; format: in vivo; details: 60 min post-injection
Description: Tumor-bearing mice were anesthetized with isoflurane/O2 (1.5–3% v/v) and imaged at various times after intravenous injection of each tracer [2.6 to 3.7 MBq (70 to 100 µCi)]. Whole body static PET images were obtained at 2 bed positions (FOV = 2.0 cm, total imaging time: 10 min) using a BioPET scanner (Bioscan Inc., Washington, DC, USA). The images were reconstructed by a 3-dimensional ordered-subsets expectation maximum (3D-OSEM).

PC3(+) xenografts [6] = test: Blocking biodistribution study in PC3(+) xenografts, coinjection of non-radioactive DCFPyL; format: in vivo, mice; details: 60 min
Description: as §2, §3, §4

[7] = 15 min post-injection, mean ± SE
[8] = 30 min post-injection, mean ± SE
[9] = mouse, blood, intravenous, mean ± SE, read-out: Blood uptake, parent (corrected for metabolites)
[10] = mouse, kidney, intravenous, mean ± SE, read-out: Kidney uptake, parent (corrected for metabolites)
[11] = 60 min post-injection, mean ± SE
[12] = 120 min post-injection, mean ± SE

T1 sequence (Q04609 whole entry): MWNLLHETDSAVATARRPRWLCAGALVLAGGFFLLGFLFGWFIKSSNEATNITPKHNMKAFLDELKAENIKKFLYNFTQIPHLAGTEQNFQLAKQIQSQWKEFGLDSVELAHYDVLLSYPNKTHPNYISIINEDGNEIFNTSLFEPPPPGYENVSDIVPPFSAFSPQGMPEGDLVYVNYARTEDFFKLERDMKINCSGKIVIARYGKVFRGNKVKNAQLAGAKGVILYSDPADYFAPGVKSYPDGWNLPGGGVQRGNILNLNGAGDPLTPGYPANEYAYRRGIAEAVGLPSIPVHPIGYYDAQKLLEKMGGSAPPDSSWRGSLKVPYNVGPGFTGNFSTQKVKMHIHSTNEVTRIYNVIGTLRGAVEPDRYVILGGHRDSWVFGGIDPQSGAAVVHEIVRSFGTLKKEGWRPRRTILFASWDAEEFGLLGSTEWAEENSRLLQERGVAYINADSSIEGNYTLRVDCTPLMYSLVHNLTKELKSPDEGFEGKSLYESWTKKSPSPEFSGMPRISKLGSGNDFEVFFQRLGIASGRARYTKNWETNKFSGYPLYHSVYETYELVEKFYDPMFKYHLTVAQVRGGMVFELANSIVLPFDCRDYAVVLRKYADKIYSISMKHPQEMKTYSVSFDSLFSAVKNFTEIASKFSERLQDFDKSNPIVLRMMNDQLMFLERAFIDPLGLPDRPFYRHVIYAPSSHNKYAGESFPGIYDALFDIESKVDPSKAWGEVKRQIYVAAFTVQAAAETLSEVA

## O=C(O)CC[C@H](NC(=O)N[C@@H](CCCCNC(=O)CO/N=C\c1ccc([18F])cc1)C(=O)O)C(=O)O [[^18F]1a, reference compound]
PSMA [1]; saturation assays, mean (SE), n = 3–5
  Kd: 0.238 nM
PC3(−) xenografts
  PC3(−) Tumor T:M: 1.07 ± 0.08
[2]
  %Parent compound in blood (TLC analysis): 50.2 ± 1.4%
PSMA [3]
  Ki: 0.1 nM
PSMA [3]; p = 0.006
  decrease in Ki compared to Ki of DCFPyL: ~ 4 fold
PC3(+) xenografts [4]; 60 min, mean ± SE, n = 8–10
  Blood T:M: 2.39 ± 0.14
  Femur T:M: 0.92 ± 0.09
  Kidney T:M: 507.8 ± 44.0
  Liver T:M: 35.7 ± 3.1
  PC3(+) Tumor T:M: 103.0 ± 10.9

## O=C(O)CCC(NC(=O)NC(CCCCNC(=O)c1ccc([18F])nc1)C(=O)O)C(=O)O (stereo not shown) [[^18F]DCFPyL, 2-(3-(1-carboxy-5-[(6-[^18F]fluoropyridine-3-carbonyl)-amino]-pentyl)-ureido)-pentanedioic acid, reference compound]
[5]
  PC3(+) tumor uptake from ROI analysis of PET images: 19 %ID/g
  kidney uptake from ROI analysis of PET images: 187 %ID/g
  liver uptake from ROI analysis of PET images: 3 %ID/g
PSMA [1]; n = 5
  Bmax (PSMA expression level): 13.95 ± 1.60 fmol/µg of protein
PC3(+) xenografts [6]
  increase of liver T:M in blocked group compared to tracer-only group: 2.7 fold
PC3(+) xenografts [6]; coinjection of DCFPyL 1000×
  PC3(+) tumor T:M of the blocked group: 50
  decrease of PC3(+) tumor T:M in blocked group compared to non-blocked group: 60%
  decrease of kidney T:M in blocked group: 96%
  decrease of spleen T:M in blocked group: 81%
  liver T:M of the blocked group: 27
  reduction in blood and most tissue uptakes (%ID/g) compared to tracer-only group: > 50%
PC3(+) xenografts [6]; no blocking dose
  PC3(+) tumor T:M of the tracer-only group of the blocking study: 141
PC3(−) xenografts
  PC3(−) tumor uptake: 0.3 %ID/g
  PC3(−) tumor uptake as fraction of uptake in PC3(+) tumors: < 2%
  PC3(−) Tumor T:M: 1.50 ± 0.17
[2]; [7]
  Blood uptake, parent (corrected for metabolites): 1.06 ± 0.05 %ID/g
[2]; [8]
  Kidney uptake, parent (corrected for metabolites): 20.18 ± 0.72 %ID/g
[2]
  %Parent compound in blood (TLC analysis): 49.9 ± 10.7%
[2]; mouse, blood, intravenous, 30 min post-injection, mean ± SE, read-out: Blood uptake, parent (corrected for metabolites)
  tissue uptake at 0.5 h: 0.4 ± 0.02 %ID/g
[2]; [9]
  tissue uptake at 1 h: 0.26 ± 0.02 %ID/g
  tissue uptake at 2 h: 0.045 ± 0.003 %ID/g
[2]; mouse, kidney, intravenous, 15 min post-injection, mean ± SE, read-out: Kidney uptake, parent (corrected for metabolites)
  tissue uptake at 0.25 h: 17.1 ± 0.84 %ID/g
[2]; [10]
  tissue uptake at 1 h: 17.6 ± 1.48 %ID/g
  tissue uptake at 2 h: 3.41 ± 0.46 %ID/g
[2]; nude, mouse, in vivo
  % of parent in blood: 50-40
  % of parent in kidney: 16-7
PC3(+) xenografts [4]; 15 min
  PC3(+) tumor uptake: 18.6 %ID/g
  salivary gland T:M: 2.7
PC3(+) xenografts [4]; [7]
  Blood uptake, total radioactivity: 2.66 ± 0.12 %ID/g
  Kidney uptake, total radioactivity: 132.9 ± 6.6 %ID/g
PC3(+) xenografts [4]; [8]
  Blood uptake, total radioactivity: 1.03 ± 0.05 %ID/g
  Kidney uptake, total radioactivity: 126.9 ± 5.6 %ID/g
PC3(+) xenografts [4]; 60 min
  PC3(+) tumor uptake: 25.6 %ID/g
PC3(+) xenografts [4]; 60 min (Figure 5A)
  Radioactivity in the blood: 0.519 %ID/g
PC3(+) xenografts [4]; 60 min, mean ± SE, n = 8–10
  Blood T:M: 2.29 ± 0.15
  Femur T:M: 0.90 ± 0.09
  Kidney T:M: 695.1 ± 76.0
  Liver T:M: 9.88 ± 7.4
  PC3(+) Tumor T:M: 124
PC3(+) xenografts [4]; [11]
  Blood uptake, total radioactivity: 0.52 ± 0.06 %ID/g
  Kidney uptake, total radioactivity: 147.7 ± 11.6 %ID/g
PC3(+) xenografts [4]; 120 min
  PC3(+) tumor uptake: 20.8 %ID/g
  salivary gland T:M: 2.0
PC3(+) xenografts [4]; [12]
  Blood uptake, total radioactivity: 0.13 ± 0.01 %ID/g
  Kidney uptake, total radioactivity: 50.2 ± 3.6 %ID/g
PC3(+) xenografts [4]; all times 15 to 120 min
  Femur uptake: < 1 %ID/g
PC3(+) xenografts [4]; all times except 120 min
  Femur T:M: < 1.8
PC3(+) xenografts [4]; at 120 min
  salivary gland radioactivity cleared: 92%
PC3(+) xenografts [4]; mouse, in vivo
  decrease of kidney uptake from 15 to 120 min: 65%
  decrease of salivary gland T:M from 15 to 120 min: 34%
  increase in tumor T:M from 15 to 120 min: 11 fold
